# Laboratory results reported in US20220008449A1, “A METHOD OF MIMICKING BENEFITS OF DIETARY RESTRICTION BY TRANSIENTLY UPREGULATING ER STRESS RESPONSE” (NATIONAL INSTITUTE OF IMMUNOLOGY, priority 2018, published 2022).
# Entries after “also recorded” stand apart in the source; their conditions may differ.
# Assays:
# Format in all cases: in vivo, Caenorhabditis elegans
# C. elegans = test: Adult life span after transient (first 24 h) Tm or 2DG supplementation
# Protocol: Gravid adult worms, initially grown on E. coli OP50 were bleached and eggs were hatched on different RNAi plates. On reaching adulthood, 50-60 young adult worms were transferred to the similar RNAi plates in triplicates and overlaid with Fluoro-deoxyuridine (FudR) to final concentration of 0.1 mg/ml of agar (2). At the 7th Day of adulthood, sick, sluggish and slow dwelling worms were removed from the life span population and the remaining were considered as the number of subjects ‘N’. Following this, number of dead worms were scored every alternate day and plotted as % survival against the number of days. Statistical analysis for survival was conducted using Mantel-Cox Log Rank test using Oasis software. Average life span was also determined using the same method and represented as Mean life span±Standard Error Mean (S.E.M).
# Overnight grown bacterial culture expressing Control or test RNAi were re-inoculated in 200 ml fresh LB media and grown at 37° C. until OD600 reached 0.5-0.6. The culture was divided in two parts (A and B) in a ratio of 1:3 and cells are pelleted separately using a centrifuge (4810R, Eppendorf, Germany) at 5000 r.p.m for 10 minutes at 4° C. Pellet from part B (150 ml) of the culture was resuspended in 1×M9 buffer containing 100 μg/ml ampicillin and 1 mM IPTG to 1/10th of its initial culture volume (for 150 ml culture, 15 ml of resuspension buffer was used) and 350 μl was seeded onto each RNAi plate and left for drying at room temperature for 24 hours.
# Gravid adult worms initially grown on E. coli OP50 bacteria were bleached and eggs were re-suspended in 100-200 ul of 1×M9 buffer and standardized for the number of eggs present in a particular volume.
# Entire composition of cocktail (total volume 1 ml) is mentioned as follows:
# Eggs were left on rotation in this cocktail at a slow speed for 24 hrs. […] They were allowed to grow till adulthood when 100 worms belonging to each treatment regime were transferred onto FuDR containing RNAi plates and life span was scored as mentioned above. iUPR^ER efficiency was also measured on Day 2 of adulthood, as mentioned previously.
# Since transient up-regulation of UPR^ER was observed, experiments were conducted to see its causal role in life span extension, as observed during DR. […] After the pharmaceutical reagent was washed off, the worms were grown on solid NGM media and post-adult life span was recorded. […] This observation supports the role of hormesis, triggered by an early ER stress as a mechanism of DR-mediated life span enhancement, in the models that were tested.
# [1] = tested on: Punc-54:polyQ40:yfp worms; test: PolyQ aggregate number in adult worms after transient Tm exposure
# Source text: In order to evaluate the role of DR in augmenting the ERAD and its physiological consequences, a reporter was used that expresses a stretch of 40 glutamines (Q40) tagged with a yellow fluorescent protein in C. elegans muscle. This reporter strain was crossed with eat-2(ad1116) mutant worms to generate worms carrying both the reporter transgene and the eat-2 mutation (hereafter, referred to as eat-2;PolyQ). It was observed that incorporating eat-2 mutation led to 60-80% suppression in the number of aggregates at all age points, supporting the earlier observation of alleviation in the age-associated increase in PolyQ aggregation during DR (FIG. 6A). […] Since ire-1 was a requirement for DR-mediated longevity, it was tested whether this beneficial effect conferred under DR is also dependent on this gene.
# It was reported that an atypical up-regulation of UPR^ER in larvae contributes towards increased life span during DR. It was shown that pharmaceutically mimicking the transient UPR^ER up-regulation during early larval life augmented the iUPR^ER efficiency with age and increased life span. To determine whether such hormetic intervention can protect against the age-related proteostasis collapse, WT worms were exposed with a range of concentrations of Tm only during the start of larval development, as mentioned before. […]
# Phsp-4:gfp(zcIs4) worms = test: Induced UPR^ER (iUPR^ER) efficiency, Phsp-4:gfp fluorescence after acute Tm challenge in adulthood; conditions: for iUPR^ER at adulthood after Tm hormesis: acute 5 mg/mL tunicamycin treatment, day 2 of adulthood
# Protocol: Transgenic Phsp-4:gfp(zcIs4) and eat-2(ad1116);Phsp-4:gfp(zcIs4) were bleached and eggs were hatched on control RNAi. Worms were allowed to grow till adulthood and then transferred onto plates overlaid with FuDR to a final concentration of 0.1 mg/ml. […] Since Tm is dissolved in 0.05% DMSO, it was used as vehicle control. After 6 hours, 50 worms from each treatment were mounted onto 2% agarose slides and visualized using Axio-Imager M2 epifluorescent microscope with a GFP filter set (Carl Zeiss, Germany) Fluorescence of ≥20 Tm-treated and untreated worms was quantified using NIH ImageJ software. Average fluorescence of treated worms was normalized to untreated worms and plotted as normalized GFP fold induction at different days of adulthood. Similar procedure was followed to compare iUPR^ER efficiency of Phsp-4:gfp(zcIs4) on control and drl-1 RNAi on different days of adulthood.
# Eggs were left on rotation in this cocktail at a slow speed for 24 hrs. Following this, the hatched L1 larvae were washed 3-4 times with 1×M9 buffer to remove traces of tunicamycin and added onto seeded control RNAi or test RNAi plates containing no reagent. They were allowed to grow till adulthood when 100 worms belonging to each treatment regime were transferred onto FuDR containing RNAi plates and life span was scored as mentioned above. iUPR^ER efficiency was also measured on Day 2 of adulthood, as mentioned previously.
# Since it was observed that transient ER stress using Tm at early post-embryonic stage increased life span, it was tested whether this treatment could also lead to a better iUPR^ER efficiency with age. […] Importantly, hormetic up-regulation of the ER stress response during early developmental life leads to this increased ER efficiency contributing towards enhanced longevity during DR.
compound,measurement,setting,value
Tunicamycin [Tm],Effect on life span,"C. elegans; WT larvae, 0.125 μg/ml Tm during first 24 hours",sufficient to extend lifespan; also recorded: significant extension of life span
same,Dependence of Tm hormesis life span extension on PHA-4,"C. elegans; WT on control or pha-4 RNAi, Tm 0.125 μg/mL initial 24 h",suppressed; also recorded: dependent on PHA-4
same,Dependence of Tm life span effect on ire-1,"C. elegans; WT vs ire-1(v33), Tm 0.125 μg/ml initial 24 hours",completely dependent on ire-1
same,Life span Mean ± SEM,"C. elegans; Wild type (for eat-2 hormesis expt), Tm 0.125 μg/ml for first 24 hours",21.58 ± 0.36 days
same,Life span % Change,"C. elegans; Wild type (for eat-2 hormesis expt), Tm 0.125 vs 0 μg/ml",15.83%
same,Life span Mean ± SEM,"C. elegans; Wild type (for ire-1 hormesis expt), Tm 0.125 μg/ml for first 24 hours",22.02 ± 0.30 days
same,Life span % Change,"C. elegans; Wild type (for ire-1 hormesis expt), Tm 0.125 vs 0 μg/ml",18.83%
same,Life span Mean ± SEM,"C. elegans; Wild type, Tm 0.125 μg/ml for first 24 hours",21.73 ± 0.28 days
same,Life span % Change,"C. elegans; Wild type, Tm 0.125 vs 0 μg/ml",17.78%
same,Life span Mean ± SEM,"C. elegans; eat-2 (ad1116), Tm 0.125 μg/ml for first 24 hours",25.32 ± 0.45 days
same,Life span % Change,"C. elegans; eat-2 (ad1116), Tm 0.125 vs 0 μg/ml",−10.47%
same,Effect on life span,"C. elegans; eat-2(ad1116), Tm supplementation",cannot further increase lifespan
same,Life span Mean ± SEM,"C. elegans; ire-1(v33), Tm 0.125 μg/ml for first 24 hours",18.64 ± 0.21 days
same,Life span % Change,"C. elegans; ire-1(v33), Tm 0.125 vs 0 μg/ml",−0.85%
same,Number of polyQ aggregates,"[1]; Punc-54:polyQ40:yfp on control RNAi, 0.125 μg/ml and 0.25 μg/ml Tm during larval development, day 2 and day 3 of adulthood",suppression; also recorded: significant reduction in the number of aggregates
same,Number of polyQ puncta,[1]; ire-1(v33);Q40:yfp worms treated with hormetic dose of Tm (0.125 μg/ml),significantly higher puncta at all age points
same,iUPR^ER at adulthood after Tm hormesis,Phsp-4:gfp(zcIs4) worms; control RNAi worms,even higher iUPR^ER
same,iUPR^ER at adulthood after Tm hormesis,Phsp-4:gfp(zcIs4) worms; pha-4 RNAi worms,not able to increase the iUPR^ER response
same,iUPR^ER efficiency at day 2 of adulthood,"Phsp-4:gfp(zcIs4) worms; transient Tm 24 hours post-bleaching, challenge Tm 10 μg/ml for 6 hours on day 2",increases iUPR^ER efficiency; also recorded: higher iUPR^ER efficiency
"O=CC[C@@H](O)[C@H](O)[C@H](O)CO [2-DG, 2-deoxy glucose]",Effect on life span,"C. elegans; WT, transient 2DG 0.0625 mM first 24 hours",increased; also recorded: significantly increasing life span
same,Life span Mean ± SEM,"C. elegans; Wild type, 2-DG 0.0625 mM for first 24 hours",21.21 ± 0.37 days
same,Life span % Change,"C. elegans; Wild type, 2-DG 0.0625 vs 0 mM",11.69%
same,Life span Mean ± SEM,"C. elegans; ire-1(v33), 2-DG 0.0625 mM for first 24 hours",20.07 ± 0.26 days
same,Life span % Change,"C. elegans; ire-1(v33), 2-DG 0.0625 vs 0 mM",−0.64%
same,Effect on life span,"C. elegans; ire-1(v33), transient 2DG treatment",failed to increase life span; also recorded: ire-1-dependent manner
